Assay results as given in PubChem BioAssay AID588846 (Broad Institute, 2011).
Activity calls are given as the source filed them. No rule for the calls is given here.

What was measured:
[1] = HMLE_shGFP background line viability loss – cell-based, CellTiter-Glo luminescence, dry powder, set 2, counter-screen for breast cancer stem cell killers, dose response (AID 588846); details: HMLE_shGFP viability, CellTiter-Glo luminescence, 72 h; at 32 µM (top of the series)
[2] = test system: HMLE_shGFP viability, CellTiter-Glo luminescence, 72 h; test: as above

Compound	viability fraction [1]	AC50 [2] [µM]
Cc1csc(NC(=O)c2ccc(CNc3ccccn3)o2)n1	80.2% (inactive)	–
COc1ccc(/C=C/C(=O)NC2=NCCS2)c(OC)c1	–	30
CCc1ccc(/C=C/C(=O)NC2=NCCS2)cc1	92.9% (inactive)	–
Cc1csc(NC(=O)c2ccc(COc3ccccc3F)o2)n1	–	0.36
Cc1ccc(/C=C/C(=O)NC2=NCCS2)cc1	88.1% (inactive)	–
O=C(/C=C/c1ccc(-c2ccccc2)cc1)NC1=NCCS1	13.7% (inactive)	–
O=C(/C=C/c1ccc(Cl)c(Cl)c1)NC1=NCCS1	22.2% (inactive)	–
O=C(NC1CCCC1)c1ccc(COc2ccccc2)o1	95.7% (inactive)	–
CC(C)c1ccc(/C=C/C(=O)NC2=NCCS2)cc1	14% (inactive)	–
Cc1csc(NC(=O)c2ccc(COc3cccc(F)c3)o2)n1	–	4.4
